Data reported in patent US9687480B2, “Chiral 1-(4-methylphenylmethyl)-5-oxo-{N-[(3-t-butoxycarbonyl-aminomethyl)]-piperidin-1-yl)-pyrrolidine as inhibitors of collagen induced platelet activation and adhesion” (Council of Scientific & Industrial Research, priority 2011, dated 2017).
Like-named read-outs stand apart in the source and are kept apart here.

Experiments:
[1] = test system: human platelet rich plasma (TRAP induced aggregation); assay: TRAP (SFLLRN) induced platelet aggregation, human platelet rich plasma (in vitro); format: cell-based; details: for IC50: human PRP, 25 μM TRAP, read-out: TRAP induced platelet aggregation studies (Human) IC50; for effect on TRAP induced platelet aggregation: up to 300 μM
Description: (§1) The reaction was allowed to proceed for at least 5 min, and the extent of aggregation was expressed in light-transmission units (Ivandic B T, Schlick P, Starltz P, Kurz K, Katas H A, Giannitsis E. Determination of clopidogrel resistance by whole blood platelet aggregometry and inhibitors of the P2Y12 receptor. Clinical Chemistry 2006: 52:383-88).
(§2) The percentage of aggregation was calculated by using following formula: Percent Aggregation=A/B×100 Where, A is the number of division traversed by the label on chart in the presence of Inducer & B is the total number of divisions (80). Platelet Aggregation Studies (FIG. 3) a) Platelet Aggregation (Human, In Vitro) (FIG. 3a (i) (ii) (iii))

[2] = test system: hamster whole blood (Collagen 2.5 μg/ml); assay: Whole blood aggregation in hyperlipidemic hamsters (ex vivo), collagen induced; details: Table 2 summary
[3] = target: T1, Integrin α2β1 (Homo sapiens, UniProt P05556+P17301); assay: α2β1-mediated platelet adhesion assay on soluble collagen (human, in vitro); format: cell-based; details: washed platelets, with Mg2+
T1 construct: Washed platelets, suspended in the Tyrode's-HEPES buffer; endogenous in cells; host or cells: washed human platelets from healthy volunteers
Description: Fresh blood was drawn by venipuncture from consenting healthy human volunteers in citrate-phosphate-dextrose. Platelet-rich plasma (PRP) was obtained by centrifugation at 180 g for 20 minutes at room temperature (Beckman TJ6. USA). […] Platelets were then washed twice with Buffer (20 mMHEPES, 138 mM NaCl, 2.9 mMKCl, 1 mMMgCl2, 0.36 mMNaH2PO4, 1 mM EGTA, 4.77 mM trisodium citrate, and 2.35 mM citric acid, 5 mM glucose and Apyrase 1 U/ml, pH 6.5) containing 0.1% bovine serum albumin (BSA) and finally resuspended in the HEPES-buffered Tyrode solution (pH 7.4), to give a concentration of 2×10^8 cells/mL (Jandrot-Perrus M. Lagrue A H, Okuma M, and Boni C Adhesion and Activation of Human Platelets Induced by Convulxin Involve Glycoprotein VI and Integrin α2β1 J. Biol. Chem. 1997; 272: 27035-27041).
Integrin α2β1 binding on soluble collagen depends on the presence of Mg2+/Ca^2+ (Onley D. J., Knight C. G., Tuckwell D. S., Barnes M. J., and Farndale R. W. Micromolar Ca2+ concentrations are essential for Mg2+-dependent binding of collagen by the integrin α2β1 in human platelets. J. Biol. Chem, 2000; 275: 24560-24564.) while GPVI mediates adhesion over fibrillar collagen in absence of divalent ions (Nieswandt B., Brakebusch C, Bergmeier W, Schulte V, Bouvard D, Nejad R M, Lindhout T, Heemskerk J W M, Zirngibl H and Fassler R. Glycoprotein VI but not α2b1 integrin is essential for platelet interaction with collagen. The EMBO Journal, 2001; 20:2120-2130) and therefore the adhesion assays were performed in the presence or absence of these divalent cations. […]

[4] = test system: rats; assay: FeCl3 induced carotid artery thrombosis in rats; format: in vivo; details: for time to occlude the carotid artery (TTO): compound 1 at the same dose as compound 6, aspirin at a very high dose
Description: Male SD rats were anesthetized by urethane (1.25 g/kg, i.p.). The carotid artery was carefully dissected and a pulsed Doppler Probe (DBF-120A-CPx, CBI-8000, Crystal Biotech, USA) was placed around it to record the blood flow velocity and patency of the blood vessels. The carotid artery thrombosis was induced by FeCl3 as follows: a square (1×1 mm) of Whatman Chromatography paper was immersed in 20% FeCl3 solution for 5 min and placed on the carotid artery as described earlier (Kurz K D, Main B W, Sandusky G E. Rat model of arterial thrombosis induced by ferric chloride. Thromb Res 1990; 60(4):269-80). Thrombosis was monitored as the reduction in carotid artery blood flow. The time at which the blood-flow velocity was decreased to zero was recorded as the total of occlusion (TTO) of the carotid artery. […] (Ferric Chloride induced thrombosis (FIG. 7))

[5] = test system: human platelet rich plasma (Convulxin, GP VI agonist); assay: Convulxin induced platelet aggregation, human platelet rich plasma (in vitro); format: cell-based; details: at 500 μM
Description: as §1, §2

[6] = test system: hyperlipidemic hamsters; assay: Arterio-venous shunt model in hyperlipidemic hamsters; format: in vivo
[7] = test system: mice platelet rich plasma; assay: Platelet aggregation (mice, ex vivo) induced by collagen; format: in vivo; details: oral route
Description: as §1

[8] = test system: human platelet rich plasma (Ristocetin, GP 1b specific agonist); assay: Ristocetin induced platelet aggregation, human platelet rich plasma (in vitro); format: cell-based; details: 1.5 mg/ml Ristocetin
Description: as §1, §2

T1 sequence (P17301 30-1181): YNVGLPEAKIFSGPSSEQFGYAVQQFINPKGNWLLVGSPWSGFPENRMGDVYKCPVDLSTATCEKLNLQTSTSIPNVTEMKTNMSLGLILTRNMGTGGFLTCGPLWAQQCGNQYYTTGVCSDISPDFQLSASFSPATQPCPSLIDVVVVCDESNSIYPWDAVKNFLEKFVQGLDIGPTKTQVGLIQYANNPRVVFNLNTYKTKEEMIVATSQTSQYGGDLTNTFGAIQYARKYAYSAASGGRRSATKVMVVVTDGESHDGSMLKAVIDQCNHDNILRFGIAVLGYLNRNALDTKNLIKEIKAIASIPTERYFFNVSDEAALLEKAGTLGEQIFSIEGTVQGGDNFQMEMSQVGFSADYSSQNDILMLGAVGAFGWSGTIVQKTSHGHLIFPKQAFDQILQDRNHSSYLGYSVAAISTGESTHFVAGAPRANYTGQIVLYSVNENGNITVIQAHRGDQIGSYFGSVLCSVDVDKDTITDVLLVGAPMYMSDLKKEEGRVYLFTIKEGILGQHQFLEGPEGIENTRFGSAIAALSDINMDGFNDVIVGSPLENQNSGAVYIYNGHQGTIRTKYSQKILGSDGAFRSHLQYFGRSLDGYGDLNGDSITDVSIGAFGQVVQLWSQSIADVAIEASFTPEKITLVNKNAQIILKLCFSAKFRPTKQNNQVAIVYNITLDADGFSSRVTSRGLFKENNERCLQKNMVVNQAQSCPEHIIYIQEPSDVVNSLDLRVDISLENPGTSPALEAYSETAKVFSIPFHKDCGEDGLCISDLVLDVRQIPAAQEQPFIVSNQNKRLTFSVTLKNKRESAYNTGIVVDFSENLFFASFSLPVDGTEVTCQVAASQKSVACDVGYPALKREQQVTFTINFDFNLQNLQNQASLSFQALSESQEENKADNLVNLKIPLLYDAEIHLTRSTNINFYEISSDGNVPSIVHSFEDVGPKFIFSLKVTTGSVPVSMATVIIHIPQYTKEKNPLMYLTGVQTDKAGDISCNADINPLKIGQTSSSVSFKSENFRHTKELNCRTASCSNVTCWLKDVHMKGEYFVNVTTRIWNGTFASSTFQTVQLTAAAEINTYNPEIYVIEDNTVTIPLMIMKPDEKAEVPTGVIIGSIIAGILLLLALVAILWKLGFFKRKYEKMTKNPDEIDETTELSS
T1 sequence (P05556 21-798): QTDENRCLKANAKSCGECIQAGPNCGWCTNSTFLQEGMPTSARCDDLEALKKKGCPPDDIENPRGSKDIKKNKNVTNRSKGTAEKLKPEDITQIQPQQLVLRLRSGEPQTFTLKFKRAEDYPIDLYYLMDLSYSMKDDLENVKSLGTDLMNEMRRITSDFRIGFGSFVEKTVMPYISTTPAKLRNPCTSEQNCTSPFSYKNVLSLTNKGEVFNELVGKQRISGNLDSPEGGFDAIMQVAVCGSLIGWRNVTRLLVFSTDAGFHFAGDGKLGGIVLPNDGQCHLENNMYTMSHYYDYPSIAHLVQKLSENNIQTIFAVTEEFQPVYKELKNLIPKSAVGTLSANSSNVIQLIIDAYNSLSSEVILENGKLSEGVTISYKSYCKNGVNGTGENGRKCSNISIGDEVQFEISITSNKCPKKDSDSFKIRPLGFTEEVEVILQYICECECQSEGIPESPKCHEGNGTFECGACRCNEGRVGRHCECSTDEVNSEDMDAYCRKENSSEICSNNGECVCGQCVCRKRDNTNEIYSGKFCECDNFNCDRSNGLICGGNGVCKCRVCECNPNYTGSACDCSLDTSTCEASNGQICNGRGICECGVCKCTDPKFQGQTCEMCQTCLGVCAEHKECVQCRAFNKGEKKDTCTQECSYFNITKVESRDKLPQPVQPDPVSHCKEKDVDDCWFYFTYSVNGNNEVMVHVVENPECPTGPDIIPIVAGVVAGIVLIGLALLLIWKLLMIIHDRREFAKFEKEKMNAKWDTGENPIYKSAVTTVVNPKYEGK

Compound	IC50 [1]	Whole blood aggregation in hyperlipidemic hamsters [2]	inhibition of TRAP induced platelet aggregation ([1]; at 100 μM)	human platelet adhesion on soluble collagen (GP Ia IIa / α2β1 mediated) [3]	time to occlude the carotid artery (TTO) ([4]; rats)	IC50 ([1]; Platelet)	effect on TRAP induced platelet aggregation [1]	inhibition of convulxin induced platelet aggregation [5]	Arterio-venous shunt model in hyperlipidemic hamsters ([6]; Table 2 summary, Even at 10 μM)	thrombus weight ([6]; hyperlipidemic hamsters, compound 6 at 10 μM/kg)	Ferric chloride induced thrombosis in rats ([4]; Table 2 summary)	time to occlusion, dose dependence ([4]; rats, 10, 30 & 100 μM/kg)	collagen induced platelet aggregation (ex vivo) [7]	inhibition of Ristocetin induced platelet aggregation [8]
1-(4-methylphenylmethyl)-5-oxo-{N-[(3-t-butoxycarbonyl-aminomethyl)]-piperidin-1-yl}-pyrrolidine-2-carboxamides [Compound 1]	> 100 µM	Effective												
Cc1ccc(CN2C(=O)CC[C@H]2C(=O)N2CCCC(CNC(=O)OC(C)(C)C)C2)cc1 (stereo partly shown) [Compound 1, 1-(4-methylphenylmethyl)-5-oxo-{N-[(3-t-butoxycarbonyl-aminomethyl)]-piperidin-1-yl}-pyrrolidine-2-carboxamides]			significant inhibition	partially inhibited	failed to exhibit any protection									
Cc1ccc(CN2C(=O)CC[C@H]2C(=O)N2CCC[C@@H](CNC(=O)OC(C)(C)C)C2)cc1 [Compound 6]		Effective		partially inhibited	significantly prolonged	> 500 µM	did not exhibit any effect	does not significantly inhibit	Protective	significantly reduced the thrombus weight	Protective	dose dependently exhibited prolongation in time to occlusion	dose dependent inhibition	not to exhibit any effect
Cc1ccc(CN2C(=O)CC[C@H]2C(=O)N2CCC[C@H](CNC(=O)OC(C)(C)C)C2)cc1 [Compound 7, (2S)-1-(4-methylphenylmethyl)-5-oxo-(3R)-{N-[(3-t-butoxycarbonyl-aminomethyl)]-piperidin-1-yl}-pyrrolidine-2-carboxamide]		No effect		partially inhibited		> 500 µM	did not exhibit any effect							not to exhibit any effect
